Measured values reported in patent publication US20250368678A1, “19-NOR-C3,3-DISUBSTITUTED C21-AZACYCLO-S[…] AND METHOD FOR USING SAME” (SHANDONG LUYE PHARMACEUTICAL CO., LTD., priority 2022, published 2025).

Assays:
[1] = In vitro liver microsomal stability assay, rat; assay type: in vitro ADME
In short: (§1)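 Test compound at […] was incubated at 37° C with 0.5 mg/mL rat or human liver microsomes, 1 mM NADPH and 3 mM MgCl2, in triplicate, sampled 0–60 min. Remaining parent was quantified by LC-MS/MS, giving half-life and microsomal and hepatic intrinsic clearance.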

[2] = tested on: SD rats; experiment: Anticonvulsant effect, pentylenetetrazol (PTZ)-induced epileptic convulsion SD rat model; assay type: in vivo
Protocol: To establish an epileptic convulsion SD rat animal model by intraperitoneally injecting 50 mg/kg of pentylenetetrazol (PTZ) into SD rats, and evaluate the anticonvulsant effect of compound 41.
Male SD rats weighing 300±10 g, as test animals, were acclimatized for 7 days after arriving at the animal facility and were randomly divided into groups based on weight one day before administration. The rats were fasted for half a day before testing but had access to water. During the test, compound 41 was orally administered to the animals at 3.5 mg/kg in advance. Two hours after the oral administration, a PTZ solution was intraperitoneally injected at 50 mg/kg. Observations were made on the rats' epileptic convulsion behavior within 1 h of performing PTZ induction. The latency period of clonic convulsion and the latency period of tonic-clonic behavior were measured.
Behavioral raw data are finally expressed as mean±standard error (Mean S.E.M.) and statistically analyzed using One-way ANOVA Dunnett post hoc. P<0.05 indicates the presence of a significant difference, P<0.01 indicates the presence of a very significant difference, and P<0.001 indicates the presence of an extremely significant difference.

[3] = In vitro liver microsomal stability assay, human; assay type: in vitro ADME
In short: as §1

[4] = Pharmacokinetic study in SD rats (plasma and brain); assay type: in vivo
Protocol: Male SD rats weighing about 250 g were randomly divided into groups of 3.
The intravenous dose was 6.1 mol/kg, and the intragastric dose was 24.4 μmol/kg. Animals were fasted for 12 h before administration, with free access to water, and were fed together 3 h post-administration. Blood samples of about 0.3 mL were collected at 5 min (intravenous), 15 min, 30 min, 1 h, 2 h, 3 h, 4 h, 6 h, 8 h, 12 h, and 24 h post-administration into heparinized EP tubes and centrifuged at 13,500 rpm for 10 min to separate the plasma. Rat brain tissue samples were collected after cardiac perfusion at 30 min, 2 h, and 6 h. After pretreatment, the samples were analyzed by LC-MS/MS to determine the concentration of the test compound in the plasma and brain, and pharmacokinetic parameters were calculated.

[5] = 3.5 mg/kg oral 2 h before PTZ 50 mg/kg i.p., observed 1 h, P<0.001 vs solvent control
[6] = male, rat, 6.1 umol/kg, IV 6.1 μmol/kg, plasma
[7] = male, rat, plasma, 6.1 umol/kg, IV 6.1 μmol/kg
[8] = male, rat, plasma, po, 24.4 umol/kg, IG 24.4 μmol/kg
[9] = male, rat, po, 24.4 umol/kg, IG 24.4 μmol/kg, plasma

**Q.** What does the source list for `C[C@@]1(O)CC[C@H]2[C@H](CC[C@@H]3[C@@H]2CC[C@]2(C)[C@@H](C(=O)Cn4cnn(-c5cc(F)nc(F)c5)c4=O)CC[C@@H]32)C1` [Compound 41]?
**A.** CLint scaled at 1 µM ([1]; Rat liver microsomes): 23 mL/min/kg; half-life at 1 µM ([1]; Rat liver microsomes): 108 min; Remaining amount % at 60 min ([1]; Rat liver microsomes 0.5 mg/mL, NADPH): 68.3%; microsomal CLint at 1 µM ([1]; Rat liver microsomes, read-out: CLint(mic)): 13 µL/min/mg; latency period of clonic convulsion behavior [2, 5]: 2764.6 ± 1330.9 s; latency period of tonic-clonic behavior [2, 5]: 3600 ± 0 s; effective dose for the antiepileptic convulsion effect ([2]; oral, PTZ model): 3.5 mg/kg; CLint scaled at 1 µM ([3]; Human liver microsomes): < 6.75 mL/min/kg; half-life at 1 µM ([3]; Human liver microsomes): > 186 min; Remaining amount % at 60 min ([3]; Human liver microsomes 0.5 mg/mL, NADPH): 98.2%; microsomal CLint at 1 µM ([3]; Human liver microsomes, read-out: CLint(mic)): < 7.5 µL/min/mg; brain penetration capability (in words) ([4]; IG 24.4 μmol/kg): strong; Brain concentration ([4]; IG 24.4 μmol/kg, 30 min): 2565 ± 452 nmol/kg; Brain concentration ([4]; IG 24.4 μmol/kg, 2 h): 4533 ± 720 nmol/kg; Brain concentration ([4]; IG 24.4 μmol/kg, 6 h): 2692 ± 259 nmol/kg; AUC(0-inf) [4, 6]: 10.1 ± 2.38 µM·h; AUC(0-t) [4, 6]: 9.71 ± 2.26 µM·h; C0 [4, 6]: 2110 ± 537 nM; Kp at 30 min ([4]; male, rat, brain/plasma, oral, IG 24.4 μmol/kg, 30 min, read-out: Brain-to-blood ratio): 0.8; Kp at 2 h ([4]; male, rat, brain/plasma, oral, IG 24.4 μmol/kg, 2 h, read-out: Brain-to-blood ratio): 1.2; Kp at 6 h ([4]; male, rat, brain/plasma, oral, IG 24.4 μmol/kg, 6 h, read-out: Brain-to-blood ratio): 1.8; MRT last [4, 7]: 6.3 ± 0.83 h; half-life [4, 7]: 310 ± 33 min; bioavailability ([4]; male, rat, plasma, oral, IG 24.4 μmol/kg vs IV 6.1 μmol/kg, read-out: F (absolute bioavailability)): 84%; concentration at 30 min ([4]; male, rat, plasma, oral, IG 24.4 μmol/kg, 30 min): 3.2 ± 1.16 µM; concentration at 2 h ([4]; male, rat, plasma, oral, IG 24.4 μmol/kg, 2 h): 3.81 ± 0.67 µM; concentration at 6 h ([4]; male, rat, plasma, oral, IG 24.4 μmol/kg, 6 h): 1480 ± 261 nM; MRT last [4, 8]: 7.61 ± 0.6 h; Tmax [4, 8]: 1.67 ± 0.58 h; half-life [4, 8]: 367 ± 86.4 min; AUC(0-inf) [4, 9]: 35.1 ± 7.03 µM·h; AUC(0-t) [4, 9]: 32.5 ± 5.2 µM·h; Cmax [4, 9]: 3.28 ± 0.324 µM
